Assay results reported in patent US9283235B2, “Intermittent lowering of cortisol as treatment of clinical conditions associated with abnormal concentrations of cortisol in animals” (Stegram Pharmaceuticals Limited, priority 2001, dated 2016).
Where “and” joins values, the source holds several entries; their conditions need not be identical. Equal values may be shown once.

Columns and labels:
dogs with Alopecia X = test: Treatment of Alopecia X in dogs, hair re-growth; type: in vivo, dog; details: once-daily dose
Description: To study the effect of trilostane in the treatment of Alopecia X a total of 11 dogs with the condition were examined along with 10 unaffected dogs. The hormonal abnormalities were identified, with increases in cortisol and 17 OHP concentrations. Trilostane in a once-daily dose was given to the affected animals. Five of the six Pomeranians (83%) and all four of the Miniature poodles have responded to trilostane, showing hair re-growth in the affected areas.

advanced breast cancer = details: published studies (Williams et al 1993; Ingle et al 1990); cited from earlier work
[1] = system: dogs with hyperadrenocorticism (HAC); test: Tolerability and adverse events of trilostane in dogs with HAC; type: in vivo, dog
Method: Follow-up re-examinations took place after 10 days, 4 weeks, 3 mouths, 6 months and then every 6 months or within 4 weeks of adjusting the dosage. At these points, owners were carefully questioned about their perception of the dogs general well being, dissolution of clinical signs and potential side effects and a physical examination was performed. A full biochemical profile and an ACTH stimulation test were carried out. Further tests such as urinanalysis, urine culture, thoracic radiographs, etc. were done if deemed necessary. If the clinical sips of hyperadrenocorticism (polyuria/polydipsia, polyphagia, exercise intolerance, etc.) were still present and if the post-ACTH cortisol concentration remained above 220 nmol/l, trilostane was given twice daily at the same dosage.
Starting dose was between 1.8 and 20 mg/kg (mean: 6.0; SD 3.4 mg/kg). […] Two cross bred dogs with classical clinical signs and endocrine testing results of HAC were started on 6.5 and 7.5 mg/kg trilostane. […] One of the dogs also was hyperkalaernic and hyponatraemic (ratio:22.3). In both dogs no more trilostane was given thereafter and the dogs are free of clinical signs after 2.7 and 1.4 years. In the 9 dogs with adrenal tumours, which started on the same dosing protocol as the dogs with PDH, two had the dose halved, three stayed on the original dose while in 4 dogs the dose was increased up to 300% of the original dose.

**Q.** What does the source list for `CC12CCC3C(CC[C@@]45O[C@@H]4C(=O)C(C#N)CC35C)C1CC[C@@H]2O` (stereo partly drawn) [Trilostane, 2α-cyano-4α,5α-epoxyandrostan-17β-ol-3-one]?
**A.** Miniature poodles responding, hair re-growth in the affected areas (dogs with Alopecia X): all four; Pomeranians responding, hair re-growth in the affected areas (dogs with Alopecia X; five of six): 83%; Response rate (advanced breast cancer): 29% and 38%; Biochemistry abnormalities during the course of therapy ([1]; all without clinical consequence): one episode of hyperkalaemia, two episodes of azotaemia, three episodes of hyperbilirubinaemia and two episodes of hypercalcaemia; Acute deaths ([1]; dog, in vivo): Three dogs died acutely at home; Tolerability ([1]; starting dose 1.8 to 20 mg/kg): generally well tolerated; Hyperkalaemia and hyponatraemia ([1]; trilostane stopped, both dogs euthanised): two dogs showed hyperkalaemia and hyponatraemia prior to clinical deterioration; ACTH stimulation test leading to stop of the drug ([1]; two cross bred dogs started on 6.5 and 7.5 mg/kg, after two and three months): both showed a flat-lined ACTH stimulation test
